How the values were obtained:
Experiment in all cases: relative viability (nuclei count vs DMSO), 5 days (fraction); higher = more cells survive
KN-93 + Crizotinib = compound: CN(C/C=C/C1=CC=C(C=C1)Cl)CC2=CC=CC=C2N(CCO)S(=O)(=O)C3=CC=C(C=C3)OC [KN-93] + C[C@@H](Oc1cc(-c2cnn(C3CCNCC3)c2)cnc1N)c1c(Cl)ccc(F)c1Cl [Crizotinib] (partner 1 µM)
Method in brief: (§1)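 Relative viability was taken as the ratio of nuclei in treated wells to nuclei in vehicle wells. Lung cancer cell lines in 1536-well plates received compounds by pin tool one day after seeding, either one drug alone or a fixed anchor-drug dose plus five library-drug doses (not always all listed) in √10 steps. Nuclei were counted on 4× images after 5 days of treatment, and values are medians of duplicate plates.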

KN-93 + Pictilisib = compound: CN(C/C=C/C1=CC=C(C=C1)Cl)CC2=CC=CC=C2N(CCO)S(=O)(=O)C3=CC=C(C=C3)OC [KN-93] + CS(=O)(=O)N1CCN(Cc2cc3nc(-c4cccc5[nH]ncc45)nc(N4CCOCC4)c3s2)CC1 [Pictilisib] (partner 1 µM)
Method in brief: as §1

KN-93 + Lapatinib = compound: CN(C/C=C/C1=CC=C(C=C1)Cl)CC2=CC=CC=C2N(CCO)S(=O)(=O)C3=CC=C(C=C3)OC [KN-93] + CS(=O)(=O)CCNCc1ccc(-c2ccc3ncnc(Nc4ccc(OCc5cccc(F)c5)c(Cl)c4)c3c2)o1 [Lapatinib] (partner 2 µM)
Method in brief: as §1

KN-93 + Bortezomib = compound: CN(C/C=C/C1=CC=C(C=C1)Cl)CC2=CC=CC=C2N(CCO)S(=O)(=O)C3=CC=C(C=C3)OC [KN-93] + CC(C)C[C@H](NC(=O)[C@H](Cc1ccccc1)NC(=O)c1cnccn1)B(O)O [Bortezomib] (partner 0.002 µM)
Method in brief: as §1

KN-93 + Navitoclax = compound: CN(C/C=C/C1=CC=C(C=C1)Cl)CC2=CC=CC=C2N(CCO)S(=O)(=O)C3=CC=C(C=C3)OC [KN-93] + CC1(C)CCC(c2ccc(Cl)cc2)=C(CN2CCN(c3ccc(C(=O)NS(=O)(=O)c4ccc(N[C@H](CCN5CCOCC5)CSc5ccccc5)c(S(=O)(=O)C(F)(F)F)c4)cc3)CC2)C1 [Navitoclax] (partner 0.5 µM)
Method in brief: as §1

KN-93 + Foretinib = compound: CN(C/C=C/C1=CC=C(C=C1)Cl)CC2=CC=CC=C2N(CCO)S(=O)(=O)C3=CC=C(C=C3)OC [KN-93] + COc1cc2c(Oc3ccc(NC(=O)C4(C(=O)Nc5ccc(F)cc5)CC4)cc3F)ccnc2cc1OCCCN1CCOCC1 [Foretinib] (partner 0.25 µM)
Method in brief: as §1

KN-93 + Alpelisib = compound: CN(C/C=C/C1=CC=C(C=C1)Cl)CC2=CC=CC=C2N(CCO)S(=O)(=O)C3=CC=C(C=C3)OC [KN-93] + Cc1nc(NC(=O)N2CCC[C@H]2C(N)=O)sc1-c1ccnc(C(C)(C)C(F)(F)F)c1 [Alpelisib] (partner 2 µM)
Method in brief: as §1

KN-93 + Linsitinib = compound: CN(C/C=C/C1=CC=C(C=C1)Cl)CC2=CC=CC=C2N(CCO)S(=O)(=O)C3=CC=C(C=C3)OC [KN-93] + C[C@]1(O)C[C@@H](c2nc(-c3ccc4ccc(-c5ccccc5)nc4c3)c3c(N)nccn32)C1 [Linsitinib] (partner 1 µM)
Method in brief: as §1

KN-93 + Olaparib = compound: CN(C/C=C/C1=CC=C(C=C1)Cl)CC2=CC=CC=C2N(CCO)S(=O)(=O)C3=CC=C(C=C3)OC [KN-93] + O=C(c1cc(Cc2n[nH]c(=O)c3ccccc23)ccc1F)N1CCN(C(=O)C2CC2)CC1 [Olaparib] (partner 8 µM)
Method in brief: as §1

KN-93 = compound: CN(C/C=C/C1=CC=C(C=C1)Cl)CC2=CC=CC=C2N(CCO)S(=O)(=O)C3=CC=C(C=C3)OC [KN-93]
Method in brief: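 For viability, nuclei in each treated well were divided by nuclei in vehicle wells and the median across plates was taken. Lung cancer cell lines in 1536-well plates were pinned with five library-drug doses (not always all listed) spaced by √10, cultured 5 days without medium change, and imaged at 4× after Hoechst staining, with plates passing only at control CV below 25% and at least one doubling.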

NCI-H1299
relative viability (KN-93 + Crizotinib; first compound 0.08 µM): 0.885
relative viability (KN-93 + Crizotinib; first compound 0.253 µM): 1.14
relative viability (KN-93 + Crizotinib; first compound 2.53 µM): 0.891
relative viability (KN-93 + Crizotinib; first compound 8 µM): 0.514
relative viability (KN-93 + Pictilisib; first compound 0.253 µM): 1.03
relative viability (KN-93 + Pictilisib; first compound 2.53 µM): 0.656
relative viability (KN-93 + Pictilisib; first compound 8 µM): 0.267
relative viability (KN-93 + Lapatinib; first compound 0.08 µM): 0.992
relative viability (KN-93 + Lapatinib; first compound 0.253 µM): 1.04
relative viability (KN-93 + Lapatinib; first compound 2.53 µM): 0.952
relative viability (KN-93 + Lapatinib; first compound 8 µM): 0.708
relative viability (KN-93 + Bortezomib; first compound 0.08 µM): 0.969
relative viability (KN-93 + Bortezomib; first compound 0.253 µM): 1.01
relative viability (KN-93 + Bortezomib; first compound 2.53 µM): 1.05
relative viability (KN-93 + Bortezomib; first compound 8 µM): 0.969
relative viability (KN-93 + Navitoclax; first compound 0.08 µM): 1.07
relative viability (KN-93 + Navitoclax; first compound 0.253 µM): 1.04
relative viability (KN-93 + Navitoclax; first compound 2.53 µM): 1.11
relative viability (KN-93 + Navitoclax; first compound 8 µM): 1.02
relative viability (KN-93 + Foretinib; first compound 0.08 µM): 1.12
relative viability (KN-93 + Foretinib; first compound 0.253 µM): 1.13
relative viability (KN-93 + Foretinib; first compound 2.53 µM): 1.14
relative viability (KN-93 + Foretinib; first compound 8 µM): 0.904
relative viability (KN-93 + Alpelisib; first compound 0.08 µM): 0.951
relative viability (KN-93 + Alpelisib; first compound 0.253 µM): 1.15
relative viability (KN-93 + Alpelisib; first compound 2.53 µM): 1.09
relative viability (KN-93 + Alpelisib; first compound 8 µM): 1.07
relative viability (KN-93 + Linsitinib; first compound 0.08 µM): 0.959
relative viability (KN-93 + Linsitinib; first compound 0.253 µM): 1.22
relative viability (KN-93 + Linsitinib; first compound 2.53 µM): 1.02
relative viability (KN-93 + Linsitinib; first compound 8 µM): 0.861
relative viability (KN-93 + Olaparib; first compound 0.08 µM): 0.941
relative viability (KN-93 + Olaparib; first compound 0.253 µM): 1.06
relative viability (KN-93 + Olaparib; first compound 2.53 µM): 1
relative viability (KN-93 + Olaparib; first compound 8 µM): 0.594
relative viability (KN-93; 0.08 µM): 1.01
relative viability (KN-93; 0.253 µM): 1.1
relative viability (KN-93; 2.53 µM): 1.04
relative viability (KN-93; 8 µM): 0.796

Reference: the supplement of paper PMC10307832
